Reference: patent publication US12448461B2, “ABCB5 ligands and substrates” (Children's Medical Center Corporation, priority 2018, dated 2025)
Each block holds one compound with its values, some of them ahead of it.

How the values were obtained:
[1] = biological target: T1, purified recombinant human ABCB5 (Homo sapiens, UniProt Q2M3G0); assay: Competition ELISA: PIP1, PIP2 or PIP3 binding to ABCB5 with increasing doses of competitor
T1 sequence (Q2M3G0 1-812 isoform Q2M3G0-1): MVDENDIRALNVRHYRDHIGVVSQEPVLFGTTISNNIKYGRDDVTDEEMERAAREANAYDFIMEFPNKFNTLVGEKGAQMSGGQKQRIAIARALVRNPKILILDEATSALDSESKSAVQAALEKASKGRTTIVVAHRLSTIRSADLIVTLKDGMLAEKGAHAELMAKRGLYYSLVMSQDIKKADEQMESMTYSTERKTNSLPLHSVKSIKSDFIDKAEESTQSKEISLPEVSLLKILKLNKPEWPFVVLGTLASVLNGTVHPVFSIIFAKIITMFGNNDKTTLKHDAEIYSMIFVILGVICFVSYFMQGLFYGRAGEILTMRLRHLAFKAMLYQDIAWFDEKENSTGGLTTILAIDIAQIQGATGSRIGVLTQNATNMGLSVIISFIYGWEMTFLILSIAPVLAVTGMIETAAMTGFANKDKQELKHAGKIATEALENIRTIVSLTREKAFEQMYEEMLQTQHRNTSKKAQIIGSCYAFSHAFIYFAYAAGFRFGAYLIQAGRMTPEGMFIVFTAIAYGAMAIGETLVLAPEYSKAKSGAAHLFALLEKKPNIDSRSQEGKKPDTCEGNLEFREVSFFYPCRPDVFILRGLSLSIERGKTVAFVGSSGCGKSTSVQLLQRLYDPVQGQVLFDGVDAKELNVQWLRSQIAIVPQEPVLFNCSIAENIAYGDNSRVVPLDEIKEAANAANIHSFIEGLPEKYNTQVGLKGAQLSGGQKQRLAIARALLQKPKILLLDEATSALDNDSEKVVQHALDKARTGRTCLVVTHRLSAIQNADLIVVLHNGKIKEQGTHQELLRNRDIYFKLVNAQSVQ
Method: ELISA plates coated with PIP1, PIP2 or PIP3 were incubated with purified recombinant human ABCB5 (P-glycoprotein ABCB5 [Homo sapiens] GenBank: AAO73470.1) for binding, in the absence or presence of increasing doses of PtdIns-(1,2-dioctanoyl), a synthetic analog of natural phosphatidylinositol (PtdIns) containing C8:0 fatty acids at the sn-1 and sn-2 positions (CAS Registry Number 899827-36-2).

[2] = tested on: Tyr::CreER; BrafCA; Ptenlox/lox genetic mouse melanoma model; assay: Vemurafenib treatment in 4-HT inducible genetic mouse melanoma model on ABCB5 WT or KO background; type: in vivo; settings: vemurafenib-treated ABCB5 WT mice
[3] = biological target: T2, recombinant human ABCB5 isoform 2 (Homo sapiens, UniProt Q2M3G0); assay: ELISA: plates coated with PIP1, PIP2 or PIP3 incubated with recombinant human ABCB5 isoform 2; type: binding
T2 sequence (Q2M3G0 446-1257): T1 sequence (Q2M3G0 1-812 isoform Q2M3G0-1)
Method: (§1) ELISA plates coated with PIP1, PIP2 or PIP3 were incubated with either purified recombinant human ABCB5 isoform 2 (812 aa, NCBI Reference Sequence: NP_848654.3), wildtype mouse Abcb5-expressing skin tissue, or Abcb5 non-expressing skin tissue derived from ABCB5 knockout mice (as a specificity control), followed by bound ABCB5 detection using a murine ABCB5-specific monoclonal antibody (Ksander et al Nature 2014). […] Similar results were obtained using the murine ABCB5 mAb clone 3C2-1D12 (Frank NY et al. J Biol Chem. 2003) as a detection antibody.

[4] = biological target: T3, murine Abcb5 (Mus musculus, UniProt B5X0E4); assay: ELISA: plates coated with PIP1, PIP2 or PIP3 incubated with wildtype mouse Abcb5-expressing skin tissue; type: binding; settings: absent in Abcb5 knockout tissue
T3 construct: wildtype mouse Abcb5-expressing skin tissue; from tissue; host or cells: wild-type mouse skin tissue
T3 sequence (B5X0E4 1-1255): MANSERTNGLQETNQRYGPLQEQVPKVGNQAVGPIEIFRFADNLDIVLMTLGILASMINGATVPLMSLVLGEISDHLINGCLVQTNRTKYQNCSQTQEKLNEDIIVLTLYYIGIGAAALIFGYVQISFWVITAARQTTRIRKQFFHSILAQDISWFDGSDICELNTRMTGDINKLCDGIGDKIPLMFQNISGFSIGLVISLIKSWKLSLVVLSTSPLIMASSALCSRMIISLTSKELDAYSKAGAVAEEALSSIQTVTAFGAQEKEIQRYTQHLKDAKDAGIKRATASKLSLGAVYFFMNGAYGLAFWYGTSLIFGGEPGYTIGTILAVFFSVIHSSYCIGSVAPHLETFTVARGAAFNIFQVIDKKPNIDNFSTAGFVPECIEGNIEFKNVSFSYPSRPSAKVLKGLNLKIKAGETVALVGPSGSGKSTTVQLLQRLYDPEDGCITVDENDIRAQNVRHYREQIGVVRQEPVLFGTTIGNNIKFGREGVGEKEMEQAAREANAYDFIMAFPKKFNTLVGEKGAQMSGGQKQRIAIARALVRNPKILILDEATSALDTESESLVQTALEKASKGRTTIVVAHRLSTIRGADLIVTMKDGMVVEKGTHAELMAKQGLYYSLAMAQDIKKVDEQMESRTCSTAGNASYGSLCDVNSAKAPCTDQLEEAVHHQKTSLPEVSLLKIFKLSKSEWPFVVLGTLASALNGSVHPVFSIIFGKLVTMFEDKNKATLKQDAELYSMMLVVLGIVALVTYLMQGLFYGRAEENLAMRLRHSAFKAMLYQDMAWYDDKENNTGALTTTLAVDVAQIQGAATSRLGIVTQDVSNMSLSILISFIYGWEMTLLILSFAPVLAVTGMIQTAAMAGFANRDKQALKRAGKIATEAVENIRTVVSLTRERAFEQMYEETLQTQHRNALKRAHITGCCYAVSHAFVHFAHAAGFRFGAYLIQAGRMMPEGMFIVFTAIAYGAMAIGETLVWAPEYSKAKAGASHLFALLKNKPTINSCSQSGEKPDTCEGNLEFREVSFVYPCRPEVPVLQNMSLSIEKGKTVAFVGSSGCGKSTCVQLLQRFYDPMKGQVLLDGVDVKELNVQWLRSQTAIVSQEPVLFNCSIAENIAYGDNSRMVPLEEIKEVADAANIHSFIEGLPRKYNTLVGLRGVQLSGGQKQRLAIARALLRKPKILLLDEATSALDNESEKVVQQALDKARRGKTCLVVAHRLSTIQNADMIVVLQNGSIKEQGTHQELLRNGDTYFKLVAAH
Method: as §1

[5] = tested on: ABCB5; assay: Surface plasmon resonance (SPR) binding and antibody competition on PIP1, PIP2 and PIP3 surfaces
[6] = biological target: T4, ABCB5 (Homo sapiens, UniProt Q2M3G0); assay: Immunoprecipitation with anti-PIP2 or anti-PIP3 antibody from ABCB5-expressing melanoma cells, ABCB5 immunoblot; type: binding
T4 construct: Immunoprecipitation from human ABCB5-expressing melanoma cells; endogenous in cells
T4 sequence (Q2M3G0 1-1257): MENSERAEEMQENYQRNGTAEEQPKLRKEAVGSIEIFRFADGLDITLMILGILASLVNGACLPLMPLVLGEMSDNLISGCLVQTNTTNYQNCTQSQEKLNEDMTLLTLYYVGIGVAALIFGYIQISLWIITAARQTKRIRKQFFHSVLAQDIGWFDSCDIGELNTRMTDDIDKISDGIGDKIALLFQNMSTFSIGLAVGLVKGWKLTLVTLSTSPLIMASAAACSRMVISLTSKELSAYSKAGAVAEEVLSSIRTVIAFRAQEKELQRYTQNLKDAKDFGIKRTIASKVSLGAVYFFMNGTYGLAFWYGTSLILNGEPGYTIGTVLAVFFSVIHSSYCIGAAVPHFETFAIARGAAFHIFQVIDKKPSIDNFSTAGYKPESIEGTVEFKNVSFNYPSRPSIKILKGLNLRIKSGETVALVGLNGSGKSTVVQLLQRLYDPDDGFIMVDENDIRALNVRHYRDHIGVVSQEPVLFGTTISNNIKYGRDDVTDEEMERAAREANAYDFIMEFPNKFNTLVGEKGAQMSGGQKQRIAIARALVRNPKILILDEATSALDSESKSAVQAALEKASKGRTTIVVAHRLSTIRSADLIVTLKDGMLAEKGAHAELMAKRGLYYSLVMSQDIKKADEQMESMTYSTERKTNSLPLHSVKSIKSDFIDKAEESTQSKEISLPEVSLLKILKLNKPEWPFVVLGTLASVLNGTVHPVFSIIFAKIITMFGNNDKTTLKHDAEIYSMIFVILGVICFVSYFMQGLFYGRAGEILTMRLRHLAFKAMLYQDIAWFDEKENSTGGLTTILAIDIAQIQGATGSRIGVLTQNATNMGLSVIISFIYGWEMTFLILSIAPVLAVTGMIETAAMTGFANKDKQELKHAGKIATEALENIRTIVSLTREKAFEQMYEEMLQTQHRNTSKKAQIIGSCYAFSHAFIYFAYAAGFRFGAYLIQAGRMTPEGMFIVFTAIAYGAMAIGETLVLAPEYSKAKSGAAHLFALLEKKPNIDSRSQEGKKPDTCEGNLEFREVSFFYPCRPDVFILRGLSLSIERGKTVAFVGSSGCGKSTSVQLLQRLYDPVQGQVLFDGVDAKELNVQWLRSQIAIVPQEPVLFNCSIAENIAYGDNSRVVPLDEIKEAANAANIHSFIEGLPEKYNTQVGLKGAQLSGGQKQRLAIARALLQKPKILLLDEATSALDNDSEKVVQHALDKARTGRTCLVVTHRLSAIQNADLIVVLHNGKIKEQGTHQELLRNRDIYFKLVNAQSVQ
Excerpt: PIP2 pulldown was confirmed using immunoblotting with PIP2 antibody in FIG. 1A (lower panel).

- inhibition of binding of PIP1, PIP2 or PIP3 to ABCB5 ([1]; increasing doses): competitively inhibit
- concentration of apparent saturation of the inhibitory effect ([1]; inhibition of PIP1, PIP2 or PIP3 binding to ABCB5): 0.1 mM
Compound: CCCCCCCC(=O)OCC(COP(=O)(O)OC1C(O)C(O)C(O)C(O)C1O)OC(=O)CCCCCCC (stereo not drawn) [PtdIns-(1,2-dioctanoyl)]

Compound: CCCS(=O)(=O)Nc1ccc(F)c(C(=O)c2c[nH]c3ncc(-c4ccc(Cl)cc4)cc23)c1F [vemurafenib]
- formation of vemurafenib-resistant tumors [2]: 100%

- relative efficiency of binding to ABCB5 ([3]; PIP2 and PIP3 compared with PIP1): more efficient
- binding to recombinant human ABCB5 ([3]; detection with ABCB5-specific monoclonal antibody): bound
- binding to murine Abcb5 [4]: bound
- binding to ABCB5 by SPR [5]: binding
- co-precipitation of ABCB5 on lipid pulldown [6]: co-precipitation of ABCB5 protein
Compound: PIP3

- binding to ABCB5 by SPR [5]: shown to bind
Compound: CCCCCCCC(=O)OC[C@H](COP(=O)(O)O[C@@H]1[C@H](O)[C@H](O)[C@@H](OP(=O)(O)O)[C@H](OP(=O)(O)O)[C@H]1O)OC(=O)CCCCCCC [PI (4,5) P2, diC8]
